Results as given in patent US7863014B2 (priority 2001, dated 2011).

Columns and labels:
[1] = molecular target: T1, Ppnk (Mycobacterium tuberculosis, UniProt P9WHV7); assay: Effect of NADP and ADP on NADP-producing activity of purified Ppnk; format: biochemical, M. tuberculosis; details: various levels of NADP or ADP
Method: The NADP-producing activity was assayed in the presence of various levels of NADP (solid circles) or ADP (open circles).
A reaction for producing NADP was performed in a reaction mixture solution (4.0 ml) at 37° C. with shaking. […] After the reaction for 1 hour, 10 μl of the reaction mixture was collected and enzymatically assayed for NADP using isocitrate dehydrogenase (Sigma-Aldrich Japan, Tokyo, Japan). The activity was expressed in μmol/g cells/hour.

[2] = molecular target: T1, Ppnk

T1 sequence (P9WHV7 whole entry, looked up): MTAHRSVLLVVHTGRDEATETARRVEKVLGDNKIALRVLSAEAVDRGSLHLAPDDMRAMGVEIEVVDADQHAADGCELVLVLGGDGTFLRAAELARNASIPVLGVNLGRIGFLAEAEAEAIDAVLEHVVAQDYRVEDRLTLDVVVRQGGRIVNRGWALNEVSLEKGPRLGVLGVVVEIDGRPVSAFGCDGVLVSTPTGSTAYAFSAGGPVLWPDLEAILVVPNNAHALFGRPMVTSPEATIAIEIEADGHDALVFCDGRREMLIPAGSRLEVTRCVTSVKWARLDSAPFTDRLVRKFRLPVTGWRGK

Compound	inhibition of polyphosphate-dependent NAD kinase activity of Ppnk [1]	Mg2+ concentration giving highest activity [2]	effectiveness among metal ions (Mg2+, Mn2+, Ca2+) [2]
Nc1ncnc2c1ncn2[C@@H]1O[C@H](COP(=O)(O)OP(=O)(O)O)[C@@H](O)[C@H]1O [ADP]	not inhibited		
[Cl-].[Cl-].[Mg+2] [MgCl2]		100 mM	most effective
